According to patent publication US9604931B2, “Nuclear receptor binding agents” (GTx, Inc., priority 2007, dated 2017):
“Also recorded” adds a separate entry of the source.

Columns and labels:
[1] = tested on: LPS induced THP-1 macrophage cell adhesion to bEND-3 endothelial cells; assay: Macrophage adhesion assay; type: cell-based
Procedure: To determine the anti-inflammatory effects of ER-β NRBAs in vitro, a macrophage adhesion assay was performed. Macrophages adhere to endothelial cells due to elevated levels of pro-inflammatory cytokines. This principle was used in this assay to determine the effect of one of the ER-NRBAs on bacterial lipopolysaccharide (LPS) induced THP-1 macrophage cell adhesion to bEND-3 endothelial cells.

[2] = tested on: Ang II induced hypertension; assay: Angiotensin II model, blood pressure; type: in vivo, ovariectomized C57/BJ6 and ERβKO mice; design: Systolic pressure / Diastolic pressure: unit: mmHg; settings: for Diastolic pressure / Systolic pressure: Ang II
Procedure: (§1) Thirty, ten week old female ovariectomized C57/BJ6 mice, were obtained from Harlan/Sprague Dawley and were housed in 12 hour on/off lighting and fed rodent chow devoid of soy or most plant products. Ovariectomized ERβ gene-deleted (ERβKO or ERβ-KO) mice were obtained from Ken Korach, NIEHS. The ERβ mice were originally created by Drs. Smithies, Gustafsson, and colleagues. All mice were identically housed and fed the same chow.
(§2) This pellet is well documented to produce physiological levels of E2 in the serum of mice.
Blood pressure was measured 4 times during the 21-day period, using the CODA non-invasive blood pressure measuring system (Kent Scientific, Torrington, Conn.). Measurements were done by volume pressure recordings of the tail.

[3] = tested on: Ang II induced cardiac fibrosis; assay: Angiotensin II model, cardiac fibrosis; type: in vivo, ovariectomized C57/BJ6 and ERβKO mice
Procedure: as §1, with “ERβKO” for “ERβ gene-deleted (ERβKO or ERβ-KO)”
as §2
Left ventricular tissues were fixed in 4% paraformaldehyde solution. Paraffin-embedded tissue sections (5 um) were stained with Masson's trichrome for the presence of interstitial collagen fiber accumulation indicative of cardiac fibrosis. The ratio of interstitial fibrosis to the total left ventricular area was calculated from 10 randomly selected microscopic fields from each of five sections per heart using NIH imageJ analysis software (n=5 mice per condition). Further quantification of collagen deposition was made by ventricular content of hydroxyproline, a breakdown product of collagen, determined by a modified method of Bergman and Loxley (19). The ventricular tissues were homogenized and hydrolyzed in 6 N HCl at 110° C. for 24 h in a sealed reaction vial. The sample was dried and the residue re-suspended in sterile water. 0.5 ml of chloramine T was added for 5 min, then Ehrlich's reagent (3 ml) was added and the mixture left for 18 h at room temperature. The intensity of the red coloration that developed was measured by a spectrophotometer at 558 nm.

[4] = tested on: genes implicated in lipogenesis, lypolysis, anti-oxidant and other related pathways; assay: TaqMan PCR gene expression arrays on tissues of high fat diet mice; type: in vivo, C57BL6 male mice
Description: RNA extracted from WAT, BAT, liver and muscle were reverse transcribed using cDNA synthesis kit (Applied biosystems, Foster city, CA).
RNA from liver, muscle, WAT and BAT were applied to these arrays.

[5] = Brown Adipose Tissue, vs high fat diet vehicle, >2-fold, p<0.01
[6] = Liver, vs high fat diet vehicle, >2-fold, p<0.01
[7] = White Adipose Tissue, vs high fat diet vehicle, >2-fold, p<0.01

## O=c1c2c(O)cc(O)cc2c(Br)cn1-c1ccc(O)cc1 [12u, 4-bromo-6,8-dihydroxy-2-(4-hydroxyphenyl)isoquinolin-1(2H)-one]
[1]
  Adhesion of 3H labeled THP-1 cells to bEND-3 cells: significantly inhibited
[2]; ERβ-KO mice, 21 days
  Ang II induced hypertension, diastolic pressure: unchanged
  Ang II induced hypertension, systolic pressure: mildly reduced
[2]; ERβKO, 7 days
  Diastolic pressure: 98
  Systolic pressure: 143
[2]; ERβKO, 14 days
  Diastolic pressure: 98
  Systolic pressure: 147
[2]; ERβKO, 21 days
  Diastolic pressure: 96
  Systolic pressure: 146
[2]; ERβKO, time 0
  Diastolic pressure: 87
  Systolic pressure: 123
[2]; WT, 7 days
  Diastolic pressure: 88
  Systolic pressure: 120
[2]; WT, 14 days
  Diastolic pressure: 87
  Systolic pressure: 125
[2]; WT, 21 days
  Diastolic pressure: 86
  Systolic pressure: 130
[2]; WT, time 0
  Diastolic pressure: 85
  Systolic pressure: 120
[2]; wildtype mice, 21 days
  Ang II induced hypertension: largely prevented; also recorded: prevented Ang II induced cardiac hypertension
[3]; WT mice, not ERβKO
  Ventricular hydroxyproline content: significantly inhibited the hydroxyproline content
[3]; only in WT mice
  Ang II induced cardiac fibrosis (interstitial collagen): significantly inhibited fibrosis; also recorded: prevented

## N#Cc1cn(-c2ccc(O)cc2)c(=O)c2c(O)cc(O)cc12 [14m, 6,8-dihydroxy-2-(4-hydroxyphenyl)-1-oxo-1,2-dihydroisoquinoline-4-carbonitrile]
[4]; BAT and WAT
  High fat diet increase in expression of lipogenesis genes (LPL, FASN, SREBP-1, PLTP, Dhcr24): reversed
[4]; [5]
  Ddit3 gene expression Increase/Decrease: Decrease
  Dhcr24 gene expression Increase/Decrease: Decreased
  ER-β gene expression Increase/Decrease: Increased
  GPx-3 gene expression Increase/Decrease: Increase
  LPL gene expression Increase/Decrease: Decrease
  PLTP gene expression Increase/Decrease: Decrease
  UCP-1 gene expression Increase/Decrease: increase in UCP-1 gene expression; also recorded: Increased
[4]; [6]
  CIDEA gene expression Increase/Decrease: Decrease
  GPx-3 gene expression Increase/Decrease: Increase
[4]; [7]
  Ddit3 gene expression Increase/Decrease: Decrease
  FASN gene expression Increase/Decrease: Decrease
  LPL gene expression Increase/Decrease: Decrease
  SREBP1 gene expression Increase/Decrease: Decrease
